# Reference: US12534469B2 (CHILDREN'S HOSPITAL MEDICAL CENTER, priority 2020, dated 2026)
# Columns and labels:
# IRAK4 = target: T1, IRAK4 (Homo sapiens, UniProt Q9NWZ3); assay: RBC HotSpot Kinase Assay, IRAK4; format: biochemical; parameters: purchased Reaction Biology (RBC HotSpot Kinase Assay)
# T1 sequence (Q9NWZ3 1-460): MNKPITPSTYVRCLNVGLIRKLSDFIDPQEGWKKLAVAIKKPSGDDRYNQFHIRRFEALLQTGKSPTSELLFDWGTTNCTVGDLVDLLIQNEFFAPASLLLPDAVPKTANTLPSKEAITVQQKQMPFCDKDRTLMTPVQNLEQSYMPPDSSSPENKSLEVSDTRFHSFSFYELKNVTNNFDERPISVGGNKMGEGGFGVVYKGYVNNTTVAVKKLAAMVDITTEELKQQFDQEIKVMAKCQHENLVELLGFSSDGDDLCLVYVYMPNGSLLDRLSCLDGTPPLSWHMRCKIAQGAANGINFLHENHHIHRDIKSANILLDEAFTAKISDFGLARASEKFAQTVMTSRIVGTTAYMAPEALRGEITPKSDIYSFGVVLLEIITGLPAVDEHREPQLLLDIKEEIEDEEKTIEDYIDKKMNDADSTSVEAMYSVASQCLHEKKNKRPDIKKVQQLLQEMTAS
# Summary of the method: (§1)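 Radiometric filter-binding (HotSpot) activity assay on isolated recombinant kinase, possibly truncated or catalytic domain only, in 20 mM Hepes pH 7.5, 10 mM MgCl2, 1 mM EGTA, 2 mM DTT, 1% DMSO. Compound preincubated 20 min with kinase and substrate, then ^33P-ATP added. Reaction 2 h at room temperature, read by P81 filter binding.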
# IRAK1 = target: T2, IRAK1 (Homo sapiens, UniProt P51617); assay: RBC HotSpot Kinase Assay, IRAK1; format: biochemical
# T2 construct: purchased Reaction Biology (RBC HotSpot Kinase Assay)
# Summary of the method: as §1
# FLT3 = target: T3, FLT3 (Homo sapiens, UniProt P36888); assay: RBC HotSpot Kinase Assay, FLT3; format: biochemical
# T3 construct: purchased Reaction Biology (RBC HotSpot Kinase Assay)
# T3 sequence (P36888 564-958 limits assumed): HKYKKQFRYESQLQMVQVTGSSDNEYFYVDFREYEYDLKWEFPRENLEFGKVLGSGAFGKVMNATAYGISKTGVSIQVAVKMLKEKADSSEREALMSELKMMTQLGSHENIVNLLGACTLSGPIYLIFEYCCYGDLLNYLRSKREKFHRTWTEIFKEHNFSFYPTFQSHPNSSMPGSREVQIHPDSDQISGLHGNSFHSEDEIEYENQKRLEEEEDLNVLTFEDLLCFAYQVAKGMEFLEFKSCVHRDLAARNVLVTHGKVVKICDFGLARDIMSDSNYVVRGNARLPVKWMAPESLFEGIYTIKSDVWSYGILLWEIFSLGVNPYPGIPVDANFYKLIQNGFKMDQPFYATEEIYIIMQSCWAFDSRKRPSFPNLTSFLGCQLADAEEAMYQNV
# Summary of the method: as §1
# MOLM14 F691L cells = assay: MOLM14 F691L cell viability assay (Cell Titer Glo); format: cell-based
# Description: (§2) Both cell lines have activated FLT3 receptors, each of which carry additional resistance mutations in the kinase domain (D835Y and F691L, respectively).
# (§3) MOLM14 D835Y and MOLM14 F691L cells were grown in RPMI-1640 media supplemented with 20% fetal bovine serum (FBS). For viability/cytotoxicity assessments, cells were seeded into 1536-well white polystyrene tissue culture-treated Greiner plates using a Multidrop Combi dispenser (ThermoFisher), in final volume 5 μL of growth media per well, at a density of 1000 cells per well. After cell addition, 23 nL of test compound were transferred into individual wells (22 doses tested for each test compound, with a 1:2 dilution series starting at 10 μM) via a 1536 pin-tool. Bortezomib (final concentration 2.3 μM) was used as a positive control for cell cytotoxicity. Plates were incubated for 48 hours at standard incubator conditions covered by a stainless steel gasketed lid to prevent evaporation. 48 hours post compound addition, 3 μL of Cell Titer Glo (Promega) were added to each well and plates were incubated at room temperature for 15 minutes with the stainless-steel lid in place. Luminescence readings were taken using a Viewlux imager (PerkinElmer) with a 2 second exposure time per plate.
# MOLM14 D835Y cells = assay: MOLM14 D835Y cell viability assay (Cell Titer Glo); format: cell-based
# Description: as §2, §3
# T2 sequence (P51617 whole entry): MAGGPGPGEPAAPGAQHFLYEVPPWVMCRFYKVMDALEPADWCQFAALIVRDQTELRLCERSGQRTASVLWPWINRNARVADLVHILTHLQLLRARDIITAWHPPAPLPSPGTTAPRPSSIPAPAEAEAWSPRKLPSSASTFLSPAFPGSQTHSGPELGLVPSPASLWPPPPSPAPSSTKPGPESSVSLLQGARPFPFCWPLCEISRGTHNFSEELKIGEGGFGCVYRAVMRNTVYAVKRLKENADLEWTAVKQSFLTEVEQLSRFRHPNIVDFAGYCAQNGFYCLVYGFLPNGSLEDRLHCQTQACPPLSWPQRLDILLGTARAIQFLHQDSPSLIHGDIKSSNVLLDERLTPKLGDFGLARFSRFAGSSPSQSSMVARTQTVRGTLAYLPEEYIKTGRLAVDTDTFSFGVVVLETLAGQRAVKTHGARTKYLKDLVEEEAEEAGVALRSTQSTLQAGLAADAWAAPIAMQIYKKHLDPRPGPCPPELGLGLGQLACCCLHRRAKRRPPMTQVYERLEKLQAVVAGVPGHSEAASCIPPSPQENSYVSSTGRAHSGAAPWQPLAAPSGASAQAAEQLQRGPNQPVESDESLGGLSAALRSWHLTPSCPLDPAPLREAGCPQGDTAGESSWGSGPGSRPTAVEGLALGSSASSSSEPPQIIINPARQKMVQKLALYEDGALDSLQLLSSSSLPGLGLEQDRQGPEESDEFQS
SMILES,IC50 (IRAK4),IC50 (IRAK1),IC50 (FLT3),IC50 (MOLM14 F691L cells; 48 hours),IC50 (MOLM14 D835Y cells; 48 hours),"IC50 (MOLM14 F691L cells; Homo sapiens, MOLM-14, 48 h)","IC50 (MOLM14 D835Y cells; Homo sapiens, MOLM-14, 48 h)"
"Cn1cc(-c2ccc3ncc(-c4cccc(N[C@H]5CNC[C@@H]5F)n4)n3n2)cn1 [Compound 1, N-((3S,4S)-4-fluoropyrrolidin-3-yl)-6-(6-(1-methyl-1H-pyrazol-4-yl)imidazo[1,2-b]pyridazin-3-yl)pyridin-2-amine]",13 nM,331 nM,0.6 nM,,,1680 nM,60 nM
COc1cc2ncc(-c3cccc(N[C@@H]4CCCNC4)n3)n2nc1C1CC1 [Compound 101],11 nM,2320 nM,< 0.5 nM,,,596 nM,
"COc1cc2ncc(-c3cc(F)cc(N[C@H]4CNC[C@@H]4F)n3)n2nc1C1CC1 [Compound 103, 6-(6-cyclopropyl-7-methoxyimidazo[1,2-b]pyridazin-3-yl)-4-fluoro-N-((3S,4S)-4-fluoropyrrolidin-3-yl)pyridin-2-amine]",16 nM,218 nM,< 0.5 nM,,,1450 nM,205 nM
"COc1cc2ncc(-c3cc(F)cc(N[C@@H]4CCCNC4)n3)n2nc1C1CC1 [Compound 104, (R)-6-(6-cyclopropyl-7-methoxyimidazo[1,2-b]pyridazin-3-yl)-4-fluoro-N-(piperidin-3-yl)pyridin-2-amine]",45 nM,1340 nM,< 0.5 nM,,,1150 nM,193 nM
"COc1cc2ncc(-c3cc(F)cc(N[C@H]4CNCC[C@@H]4F)n3)n2nc1C1CC1 [Compound 105, 6-(6-cyclopropyl-7-methoxyimidazo[1,2-b]pyridazin-3-yl)-4-fluoro-N-((3S,4S)-4-fluoropiperidin-3-yl)pyridin-2-amine]",7 nM,272 nM,< 0.5 nM,,,1220 nM,231 nM
"F[C@H]1CNC[C@@H]1Nc1cccc(-c2cnc3cc(Cl)cnn23)n1 [Compound 110, 6-(7-chloroimidazo[1,2-b]pyridazin-3-yl)-N-((3S,4S)-4-fluoropyrrolidin-3-yl)pyridin-2-amine]",190 nM,3710 nM,6 nM,,,,591 nM
"F[C@H]1CNC[C@@H]1Nc1cccc(-c2cnc3cc(C4CC4)cnn23)n1 [Compound 111, 6-(7-cyclopropylimidazo[1,2-b]pyridazin-3-yl)-N-((3S,4S)-4-fluoropyrrolidin-3-yl)pyridin-2-amine]",131 nM,774 nM,4 nM,,,,1010 nM
"FC(F)COc1cnn2c(-c3cccc(N[C@H]4CNC[C@@H]4F)n3)cnc2c1 [Compound 114, 6-(7-(2,2-difluoroethoxy)imidazo[1,2-b]pyridazin-3-yl)-N-((3S,4S)-4-fluoropyrrolidin-3-yl)pyridin-2-amine]",94 nM,3470 nM,3 nM,,,,326 nM
"COc1cc2ncc(-c3cccc(N[C@@H]4CCCNC4)n3)n2nc1C(F)F [Compound 117, (R)-6-(6-(difluoromethyl)-7-methoxyimidazo[1,2-b]pyridazin-3-yl)-N-(piperidin-3-yl)pyridin-2-amine]",4 nM,383 nM,< 0.5 nM,,,1370 nM,109 nM

# The remaining lines, values ahead:
IC50 (IRAK4),IC50 (IRAK1),IC50 (FLT3),IC50 (MOLM14 F691L cells; 48 hours),IC50 (MOLM14 D835Y cells; 48 hours),"IC50 (MOLM14 F691L cells; Homo sapiens, MOLM-14, 48 h)","IC50 (MOLM14 D835Y cells; Homo sapiens, MOLM-14, 48 h)",SMILES
424 nM,8200 nM,< 0.5 nM,545 nM,69 nM,,,"COc1cc2ncc(-c3cccc(N[C@@H]4CCCNC4)n3)n2nc1C(C)(O)C(F)(F)F (single isomer, unassigned) [Compound 131]"
1770 nM,> 10000 nM,5 nM,3440 nM,486 nM,,,"COc1cc2ncc(-c3cccc(N[C@@H]4CCCNC4)n3)n2nc1C(C)(O)C(F)(F)F (single isomer, unassigned) [Compound 132]"
183 nM,8640 nM,< 0.5 nM,1720 nM,244 nM,,,"COc1cc2ncc(-c3cccc(N[C@H]4CNCC[C@@H]4F)n3)n2nc1C(C)(O)C(F)(F)F (single isomer, unassigned; fast-eluting) [Compound 134]"
169 nM,> 10000 nM,< 0.5 nM,4330 nM,386 nM,,,"COc1cc2ncc(-c3cccc(N[C@H]4CNC[C@@H]4F)n3)n2nc1C(C)(O)C(F)(F)F (single isomer, unassigned; slow-eluting) [Compound 135]"
10 nM,3140 nM,< 0.5 nM,344 nM,31 nM,,,"COc1cc2ncc(-c3cccc(N[C@H]4CNCC[C@@H]4F)n3)n2nc1C(C)(O)C(F)(F)F (single isomer, unassigned; slow-eluting) [Compound 136]"
< 0.5 nM,85 nM,< 0.5 nM,,,275 nM,20 nM,"COc1cc2ncc(-c3cccc(N[C@H]4CNCC[C@@H]4F)n3)n2nc1-c1cn[nH]c1 [Compound 120, N-((3S,4S)-4-fluoropiperidin-3-yl)-6-(7-methoxy-6-(1H-pyrazol-4-yl)imidazo[1,2-b]pyridazin-3-yl)pyridin-2-amine]"
11 nM,778 nM,1 nM,,,1370 nM,97 nM,"COc1cc2ncc(-c3cccc(N[C@H]4CNC[C@@H]4F)n3)n2nc1-c1cnn(C)c1 [Compound 121, N-((3S,4S)-4-fluoropyrrolidin-3-yl)-6-(7-methoxy-6-(1-methyl-1H-pyrazol-4-yl)imidazo[1,2-b]pyridazin-3-yl)pyridin-2-amine]"
37 nM,537 nM,0.7 nM,,,686 nM,49 nM,"COc1cc2ncc(-c3cccc(N[C@H]4CNCC[C@@H]4F)n3)n2nc1-c1cnn(C)c1 [Compound 122, N-((3S,4S)-4-fluoropiperidin-3-yl)-6-(7-methoxy-6-(1-methyl-1H-pyrazol-4-yl)imidazo[1,2-b]pyridazin-3-yl)pyridin-2-amine]"
,1140 nM,< 0.5 nM,,,2170 nM,154 nM,"COc1cc2ncc(-c3cccc(N[C@H]4CNCC[C@@H]4F)n3)n2nc1-c1cnn(C(F)F)c1 [Compound 129, 6-(6-(1-(difluoromethyl)-1H-pyrazol-4-yl)-7-methoxyimidazo[1,2-b]pyridazin-3-yl)-N-((3S,4S)-4-fluoropiperidin-3-yl)pyridin-2-amine]"
,734 nM,< 0.5 nM,1370 nM,137 nM,,,"COc1cc2ncc(-c3cccc(N[C@H]4CNCC[C@@H]4F)n3)n2nc1-c1cnn(C(F)F)c1 [Compound 130, 6-(6-(1-(difluoromethyl)-1H-pyrazol-4-yl)-7-methoxyimidazo[1,2-b]pyridazin-3-yl)-N-((3S,4S)-4-fluoropiperidin-3-yl)pyridin-2-amine]"
